pIC50: −log10 of the molar value.

By pIC50 is commonly meant the negative decadic logarithm of the IC50, by convention in mol/L.

Experiment [1] concerns the target T1, Beta-glucuronidase (Rattus norvegicus, UniProt P06760).
T1 sequence (P06760 whole entry): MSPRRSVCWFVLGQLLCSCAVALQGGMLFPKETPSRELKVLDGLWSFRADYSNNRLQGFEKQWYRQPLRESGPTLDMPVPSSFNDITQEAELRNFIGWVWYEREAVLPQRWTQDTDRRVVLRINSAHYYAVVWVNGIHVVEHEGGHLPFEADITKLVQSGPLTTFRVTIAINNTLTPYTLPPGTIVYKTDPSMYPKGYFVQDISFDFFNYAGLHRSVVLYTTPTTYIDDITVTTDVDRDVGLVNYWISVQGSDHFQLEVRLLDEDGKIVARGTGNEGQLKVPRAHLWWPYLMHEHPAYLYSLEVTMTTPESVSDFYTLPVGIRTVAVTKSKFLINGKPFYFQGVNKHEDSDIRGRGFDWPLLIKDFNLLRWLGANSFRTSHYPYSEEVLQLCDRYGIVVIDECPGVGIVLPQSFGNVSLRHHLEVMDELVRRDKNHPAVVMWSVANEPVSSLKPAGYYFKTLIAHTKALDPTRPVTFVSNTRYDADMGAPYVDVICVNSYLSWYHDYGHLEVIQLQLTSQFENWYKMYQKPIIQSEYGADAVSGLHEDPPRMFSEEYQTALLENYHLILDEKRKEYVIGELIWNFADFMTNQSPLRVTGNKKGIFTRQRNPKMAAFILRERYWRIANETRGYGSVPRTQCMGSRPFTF
The experiment in a line: Inhibition of degranulated rat neutrophils beta-glucuronidase.

The target of experiment [2] is T1, Beta-glucuronidase. The experiment is described as follows: Inhibition of degranulated rat peritoneal mast cells beta-glucuronidase.
The target of experiment [3] is T2, Beta-glucuronidase (Homo sapiens, UniProt P08236).
T2 sequence (P08236 whole entry): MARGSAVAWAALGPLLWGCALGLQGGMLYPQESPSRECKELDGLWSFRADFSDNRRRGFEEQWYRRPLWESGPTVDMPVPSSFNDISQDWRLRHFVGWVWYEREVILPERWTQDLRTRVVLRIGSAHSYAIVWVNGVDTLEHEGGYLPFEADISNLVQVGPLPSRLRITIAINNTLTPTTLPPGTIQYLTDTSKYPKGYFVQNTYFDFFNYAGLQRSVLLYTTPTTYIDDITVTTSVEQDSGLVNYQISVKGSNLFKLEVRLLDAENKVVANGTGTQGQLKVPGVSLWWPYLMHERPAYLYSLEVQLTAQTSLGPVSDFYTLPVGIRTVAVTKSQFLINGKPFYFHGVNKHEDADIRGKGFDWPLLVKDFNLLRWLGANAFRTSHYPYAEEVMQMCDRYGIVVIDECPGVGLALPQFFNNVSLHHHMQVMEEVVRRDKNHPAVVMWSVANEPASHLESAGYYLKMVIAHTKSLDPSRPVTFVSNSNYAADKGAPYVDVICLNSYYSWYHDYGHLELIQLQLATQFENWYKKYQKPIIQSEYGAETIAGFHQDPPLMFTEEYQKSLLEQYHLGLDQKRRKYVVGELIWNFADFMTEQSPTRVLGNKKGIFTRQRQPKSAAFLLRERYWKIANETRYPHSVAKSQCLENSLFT
The experiment in a line: Inhibition of beta-glucuronidase (unknown origin).

Regarding `COc1cc(/C=C/C(=O)OC/C(C)=C\Cc2c(O)ccc(C(=O)/C=C/c3ccc(O)cc3)c2O)ccc1O` [Gemichalcone A], the values for the pIC50 on Beta-glucuronidase [1] and against Beta-glucuronidase [2] were 5.18 and 4.15, respectively.

For `COc1cc([C@@H]2Oc3cc([C@H]4Oc5cc(O)cc(O)c5C(=O)[C@@H]4O)ccc3O[C@H]2CO)ccc1O` [Silybin B], on Beta-glucuronidase [3], the pIC50 is 2.79. In turn, `C/C(=C/Cc1c(O)ccc(C(=O)/C=C/c2ccc(O)cc2)c1O)COC(=O)/C=C/c1ccc(O)cc1` [gemichalcones B] gave a pIC50 against Beta-glucuronidase [1] of 5.24.
